Laboratory results: ChEMBL document CHEMBL1201862, “PubChem BioAssay data set” (2004)
Where a name gives a salt, the structure may show the parent alone. Activity calls are given as the source filed them.

Columns and labels:
[1] = molecular target: T1, Endoribonuclease toxin MazF (Escherichia coli K-12, UniProt P0AE70); assay: substrate-only fluorescence increase artefacts – biochemical, single-stranded RNase substrate, counter-screen for MazEF activator project, dose response (AID 588502); assay type: functional
T1 sequence (P0AE70 whole entry): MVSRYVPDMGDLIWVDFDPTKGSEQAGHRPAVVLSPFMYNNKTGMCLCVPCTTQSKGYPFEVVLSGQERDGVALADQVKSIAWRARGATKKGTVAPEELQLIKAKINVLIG

[2] = molecular target: T1, Endoribonuclease toxin MazF; assay: activation of MazEF endoribonuclease cleavage – biochemical, fluorescence, single-stranded RNA substrate, uHTS hits, dose response (AID 588481); assay type: functional
[3] = molecular target: T2, Sentrin-specific protease 1 (Homo sapiens, UniProt Q9P0U3); assay: SENP1 catalytic domain blockers, concentration series – biochemical, kinetic FRET, dose response (AID 651697); assay type: functional; details: read-out: IC50_Mean
T2 sequence (Q9P0U3 whole entry): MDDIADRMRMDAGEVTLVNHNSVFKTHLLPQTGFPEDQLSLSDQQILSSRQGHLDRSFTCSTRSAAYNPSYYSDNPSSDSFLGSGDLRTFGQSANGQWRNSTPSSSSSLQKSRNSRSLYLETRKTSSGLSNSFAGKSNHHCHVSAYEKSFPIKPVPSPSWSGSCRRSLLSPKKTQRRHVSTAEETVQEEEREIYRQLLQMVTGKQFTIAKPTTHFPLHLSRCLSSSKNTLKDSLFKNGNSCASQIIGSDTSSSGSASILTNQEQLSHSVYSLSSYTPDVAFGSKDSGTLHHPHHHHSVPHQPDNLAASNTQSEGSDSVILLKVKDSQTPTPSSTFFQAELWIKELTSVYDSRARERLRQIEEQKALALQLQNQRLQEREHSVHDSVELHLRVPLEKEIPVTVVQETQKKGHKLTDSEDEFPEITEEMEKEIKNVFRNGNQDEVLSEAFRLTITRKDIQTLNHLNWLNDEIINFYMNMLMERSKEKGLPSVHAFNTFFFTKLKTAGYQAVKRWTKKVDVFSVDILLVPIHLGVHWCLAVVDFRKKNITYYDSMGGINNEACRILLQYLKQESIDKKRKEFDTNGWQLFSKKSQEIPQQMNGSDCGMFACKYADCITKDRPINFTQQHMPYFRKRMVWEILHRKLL

[4] = molecular target: T2, Sentrin-specific protease 1; assay: Dose response confirmation of small molecule inhibitors of the catalytic domain of the SUMO protease, SENP1 in a FRET assay.; assay type: functional; details: read-out: IC50_Mean
[5] = molecular target: Mu-type opioid receptor (Homo sapiens, UniProt P35372); assay type: functional, cell-based;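 also: U2OS cells with beta-arrestin recruitment to OPRM1 by beta-gal complementation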
Mu-type opioid receptor, sequence (P35372 whole entry): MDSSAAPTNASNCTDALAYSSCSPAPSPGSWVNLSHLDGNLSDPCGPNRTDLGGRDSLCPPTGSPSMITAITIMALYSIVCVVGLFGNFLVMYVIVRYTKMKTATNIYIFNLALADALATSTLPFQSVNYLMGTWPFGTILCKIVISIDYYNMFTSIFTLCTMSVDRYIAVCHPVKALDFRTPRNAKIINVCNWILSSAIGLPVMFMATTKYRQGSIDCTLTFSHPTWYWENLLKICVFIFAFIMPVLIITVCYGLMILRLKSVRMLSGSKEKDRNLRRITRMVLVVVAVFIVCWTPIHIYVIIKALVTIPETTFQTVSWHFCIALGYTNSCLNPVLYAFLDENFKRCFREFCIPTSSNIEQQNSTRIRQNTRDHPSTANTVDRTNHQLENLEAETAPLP

[6] = tested on: Escherichia coli; assay: microbe, parasite or virus in culture
[7] = tested on: Escherichia coli; assay: microbe, parasite or virus in culture; remark: listed apart in the source
[8] = molecular target: 5-hydroxytryptamine receptor 2A (Mus musculus, UniProt P35363); assay type: functional, cell-based;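 also: CHO-K1 cells with tagged receptor and beta-arrestin; agonist potency measured as compound-induced activation of the receptor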
5-hydroxytryptamine receptor 2A, sequence (P35363 whole entry): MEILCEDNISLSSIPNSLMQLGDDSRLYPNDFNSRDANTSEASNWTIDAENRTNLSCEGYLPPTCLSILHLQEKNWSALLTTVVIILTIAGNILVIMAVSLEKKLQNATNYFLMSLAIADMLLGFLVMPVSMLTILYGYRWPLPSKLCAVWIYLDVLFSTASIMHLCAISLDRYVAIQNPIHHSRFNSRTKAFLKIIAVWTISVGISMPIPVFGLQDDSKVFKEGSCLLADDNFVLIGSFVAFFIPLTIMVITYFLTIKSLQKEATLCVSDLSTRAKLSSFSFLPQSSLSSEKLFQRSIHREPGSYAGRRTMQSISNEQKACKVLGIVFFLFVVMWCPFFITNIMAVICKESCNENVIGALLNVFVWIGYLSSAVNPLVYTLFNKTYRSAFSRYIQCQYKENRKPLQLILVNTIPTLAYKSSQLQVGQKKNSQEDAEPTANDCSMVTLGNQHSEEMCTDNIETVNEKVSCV

[9] = molecular target: T3, Kappa-type opioid receptor (Homo sapiens, UniProt P41145); assay type: functional
T3 sequence (P41145 whole entry): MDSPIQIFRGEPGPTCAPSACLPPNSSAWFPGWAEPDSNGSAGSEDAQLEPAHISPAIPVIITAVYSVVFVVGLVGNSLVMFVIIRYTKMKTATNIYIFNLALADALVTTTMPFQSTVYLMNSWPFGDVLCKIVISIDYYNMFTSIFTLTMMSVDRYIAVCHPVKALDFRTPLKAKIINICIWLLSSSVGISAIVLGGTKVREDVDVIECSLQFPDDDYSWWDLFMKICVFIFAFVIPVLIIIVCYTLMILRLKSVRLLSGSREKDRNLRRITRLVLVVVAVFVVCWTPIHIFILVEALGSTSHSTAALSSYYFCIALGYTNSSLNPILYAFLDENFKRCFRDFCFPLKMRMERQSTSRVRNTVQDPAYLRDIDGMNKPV

[10] = tested on: INS1; assay: INS-1E survival protection against cytokine death – cell-based, luminescence, retest, dose response (AID 449756); assay type: functional; details: Rattus norvegicus;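 also: cell death triggered by IL-1 beta plus TNF-alpha plus IFN-gamma mixture; protective hits raise ATP signal compared with cytokine alone wells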
[11] = HEK-293T viability loss after treatment – luminescence, T-cell screen hits, cytotoxicity control for TCR NF-kB inhibitor project, dose response (AID 489026); assay type: functional, cell-based;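 also: cells exposed to compound about 14 hours before the viability readout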
[12] = molecular target: Serine/threonine-protein phosphatase (Candida dubliniensis (strain CD36 / CBS 7987 / NCPF 3949 / NRRLY-17841) (Yeast), UniProt B9W6M3); assay: blockers of CaCl2-induced CDRE-lacZ signaling – S. cerevisiae, luminescence, secondary, dose response (AID 2388); assay type: functional, cell-based;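 also: yeast reporter cells carrying a calcineurin-responsive lacZ construct stimulated with calcium chloride; luminescent beta-galactosidase reporter signal in whole cells rather than isolated phosphatase activity; potency for inhibition where a drop in reporter signal means calcineurin blockade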
Serine/threonine-protein phosphatase, sequence (B9W6M3 whole entry): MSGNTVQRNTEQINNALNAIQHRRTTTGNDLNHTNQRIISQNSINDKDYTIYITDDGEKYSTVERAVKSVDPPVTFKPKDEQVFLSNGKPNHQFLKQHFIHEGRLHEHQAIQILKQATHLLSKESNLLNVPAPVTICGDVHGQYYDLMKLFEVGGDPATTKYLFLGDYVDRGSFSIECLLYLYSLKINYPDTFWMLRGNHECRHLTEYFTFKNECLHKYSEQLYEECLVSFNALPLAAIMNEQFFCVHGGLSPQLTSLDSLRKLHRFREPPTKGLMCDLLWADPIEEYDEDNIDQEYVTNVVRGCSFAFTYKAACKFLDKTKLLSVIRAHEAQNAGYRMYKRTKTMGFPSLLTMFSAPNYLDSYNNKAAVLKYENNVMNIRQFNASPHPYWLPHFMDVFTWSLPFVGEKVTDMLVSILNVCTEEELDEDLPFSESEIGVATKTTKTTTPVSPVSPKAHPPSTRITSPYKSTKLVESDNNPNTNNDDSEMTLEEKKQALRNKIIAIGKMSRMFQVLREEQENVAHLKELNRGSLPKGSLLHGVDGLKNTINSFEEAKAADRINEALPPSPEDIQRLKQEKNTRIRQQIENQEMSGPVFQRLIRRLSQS

[13] = fluconazole-exposed Candida albicans growth modulators – fluorescence, retest, confirmation (AID 2467); assay type: functional, cell-based
[14] = NIH-3T3 fibroblast cytotoxicity, dose response, cytotoxicity control, cell-based, fluorescence, Alamar Blue, secondary assay (AID 2327); assay type: functional;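 also: NIH-3T3 mouse fibroblasts cultured with fluconazole at 8 µg/mL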
[15] = molecular target: Paired box protein Pax-8 (Homo sapiens, UniProt Q06710); assay: PAX8 transcriptional activity inhibition in RMG-I – RMG-I cells, luciferase, cherry-pick, dose response (AID 687027); assay type: functional, cell-based;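 also: luciferase reporter driven by Pax8 target thyroperoxidase promoter measured by SteadyGlo luminescence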
Paired box protein Pax-8, sequence (Q06710 whole entry): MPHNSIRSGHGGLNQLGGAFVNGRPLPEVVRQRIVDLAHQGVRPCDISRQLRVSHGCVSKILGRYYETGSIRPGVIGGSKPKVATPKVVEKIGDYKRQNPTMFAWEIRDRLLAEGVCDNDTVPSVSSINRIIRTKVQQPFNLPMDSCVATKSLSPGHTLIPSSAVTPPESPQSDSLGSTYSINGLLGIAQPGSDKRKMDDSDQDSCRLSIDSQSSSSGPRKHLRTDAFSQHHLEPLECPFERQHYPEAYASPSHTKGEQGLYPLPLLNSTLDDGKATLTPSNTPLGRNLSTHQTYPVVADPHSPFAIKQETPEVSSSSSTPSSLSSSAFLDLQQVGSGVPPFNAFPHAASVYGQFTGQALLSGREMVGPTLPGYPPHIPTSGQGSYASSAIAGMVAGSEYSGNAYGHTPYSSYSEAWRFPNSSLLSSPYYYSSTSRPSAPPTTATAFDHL

[16] = cells; assay type: functional, cell-based
[17] = molecular target: Nonstructural protein 1 (Influenza A virus, UniProt Q194T2); assay type: functional, Influenza A virus (A/California/07/2009(H1N1))
Nonstructural protein 1, sequence (Q194T2 whole entry): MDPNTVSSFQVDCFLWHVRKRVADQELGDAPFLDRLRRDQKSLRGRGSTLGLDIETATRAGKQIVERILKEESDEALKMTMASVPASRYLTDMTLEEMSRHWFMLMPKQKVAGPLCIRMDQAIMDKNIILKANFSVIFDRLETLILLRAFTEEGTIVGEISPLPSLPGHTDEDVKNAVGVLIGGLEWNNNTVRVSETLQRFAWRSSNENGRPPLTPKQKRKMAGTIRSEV

[18] = tested on: Streptococcus; assay: GAS UMAA2166 growth inhibition – luminescence, BacTiterGlo, counter-screen for streptokinase expression inhibitor project, dose response (AID 1915); assay type: functional, organism-based; details: Streptococcus;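 also: potency for reduction of bacterial viability or growth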
[19] = molecular target: ATP-dependent molecular chaperone HSP82 (Candida albicans (strain WO-1) (Yeast), UniProt C4YTQ8); assay: steroid-induced GRE reporter decrease in yeast – S. cerevisiae, luminescence, Hsp90 inhibitor project, dose response (AID 2400); assay type: functional, cell-based;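 also: beta-galactosidase luminescence from glucocorticoid response element reporter as proxy for Hsp90 function; inhibitor potency where signal loss means Hsp90 inhibition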
ATP-dependent molecular chaperone HSP82, sequence (C4YTQ8 whole entry): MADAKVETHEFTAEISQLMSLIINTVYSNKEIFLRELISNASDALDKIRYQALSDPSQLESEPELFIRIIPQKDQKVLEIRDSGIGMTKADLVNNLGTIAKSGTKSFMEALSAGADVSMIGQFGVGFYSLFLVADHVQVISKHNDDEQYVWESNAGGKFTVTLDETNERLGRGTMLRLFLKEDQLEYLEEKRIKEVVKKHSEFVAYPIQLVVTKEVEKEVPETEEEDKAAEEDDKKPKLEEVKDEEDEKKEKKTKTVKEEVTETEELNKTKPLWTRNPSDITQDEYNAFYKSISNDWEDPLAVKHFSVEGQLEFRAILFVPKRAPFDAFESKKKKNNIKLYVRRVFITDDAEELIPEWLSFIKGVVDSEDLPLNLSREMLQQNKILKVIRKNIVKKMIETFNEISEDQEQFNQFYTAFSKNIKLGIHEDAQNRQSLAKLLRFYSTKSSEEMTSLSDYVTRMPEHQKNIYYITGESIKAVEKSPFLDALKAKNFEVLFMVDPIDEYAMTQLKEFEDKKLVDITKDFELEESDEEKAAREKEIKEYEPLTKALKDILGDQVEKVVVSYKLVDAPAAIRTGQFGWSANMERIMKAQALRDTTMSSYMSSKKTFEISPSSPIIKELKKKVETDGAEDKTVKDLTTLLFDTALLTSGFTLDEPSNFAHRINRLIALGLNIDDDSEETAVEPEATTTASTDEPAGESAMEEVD

[20] = molecular target: Beta-galactosidase (Escherichia coli, UniProt Q8VNN2); assay type: functional
Beta-galactosidase, sequence (Q8VNN2 whole entry): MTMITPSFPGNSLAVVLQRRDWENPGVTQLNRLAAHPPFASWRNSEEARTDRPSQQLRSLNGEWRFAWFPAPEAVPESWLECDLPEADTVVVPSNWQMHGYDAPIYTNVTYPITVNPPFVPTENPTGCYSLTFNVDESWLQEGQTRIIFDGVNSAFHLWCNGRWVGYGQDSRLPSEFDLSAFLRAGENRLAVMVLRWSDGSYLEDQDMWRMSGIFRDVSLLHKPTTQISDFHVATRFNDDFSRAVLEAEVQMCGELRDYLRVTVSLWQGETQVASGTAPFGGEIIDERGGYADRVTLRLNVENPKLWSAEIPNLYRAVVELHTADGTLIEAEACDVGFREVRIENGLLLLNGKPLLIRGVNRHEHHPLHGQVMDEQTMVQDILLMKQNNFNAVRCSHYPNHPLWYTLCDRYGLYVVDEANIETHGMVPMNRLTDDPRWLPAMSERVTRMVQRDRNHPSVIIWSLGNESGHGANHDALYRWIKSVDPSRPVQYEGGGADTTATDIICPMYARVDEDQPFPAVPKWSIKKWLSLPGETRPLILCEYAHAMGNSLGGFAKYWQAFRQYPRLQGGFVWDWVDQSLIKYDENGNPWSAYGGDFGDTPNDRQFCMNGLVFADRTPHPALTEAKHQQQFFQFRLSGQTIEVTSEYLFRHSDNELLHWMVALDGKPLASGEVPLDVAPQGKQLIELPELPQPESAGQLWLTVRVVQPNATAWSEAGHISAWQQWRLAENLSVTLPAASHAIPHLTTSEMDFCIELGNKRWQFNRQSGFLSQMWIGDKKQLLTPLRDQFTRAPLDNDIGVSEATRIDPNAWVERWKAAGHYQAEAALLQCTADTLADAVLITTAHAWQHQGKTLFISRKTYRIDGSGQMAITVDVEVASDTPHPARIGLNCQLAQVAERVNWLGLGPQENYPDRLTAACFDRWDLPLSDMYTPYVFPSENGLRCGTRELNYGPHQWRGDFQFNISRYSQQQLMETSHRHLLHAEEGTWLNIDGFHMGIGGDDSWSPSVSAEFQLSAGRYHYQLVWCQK

[21] = tested on: Streptococcus sp. 'group A'; assay: Streptococcus pyogenes SK(-)GAS viability under kanamycin – luminescence, BacTiterGlo, confirmation, counter-screen for streptokinase expression inhibitor project, dose response (AID 1900); assay type: functional, organism-based; details: Streptococcus sp. 'group A'
[22] = tested on: HEK293; assay: EBV LMP1 TES2 canonical NF-kB signalling blockers – cell-based, HEK293, luciferase, cherry-pick, dose response (AID 588343); assay type: functional; details: Homo sapiens
[23] = cells; assay type: functional, cell-based; remark: listed apart in the source
[24] = microbe, parasite or virus in culture; assay type: functional; details: Mycobacterium tuberculosis
[25] = molecular target: T3, Kappa-type opioid receptor; assay type: functional; remark: listed apart in the source
[26] = molecular target: T4, Streptokinase A (Streptococcus pyogenes serotype M1, UniProt P10520); assay: viability-normalized secreted streptokinase activity reduction – plasminogen activation absorbance, OD405, dose response (AID 1914); assay type: functional, Streptococcus pyogenes M1 GAS;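 also: secreted streptokinase activity via plasminogen activation per viability signal from cell pellet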
T4 sequence (P10520 whole entry): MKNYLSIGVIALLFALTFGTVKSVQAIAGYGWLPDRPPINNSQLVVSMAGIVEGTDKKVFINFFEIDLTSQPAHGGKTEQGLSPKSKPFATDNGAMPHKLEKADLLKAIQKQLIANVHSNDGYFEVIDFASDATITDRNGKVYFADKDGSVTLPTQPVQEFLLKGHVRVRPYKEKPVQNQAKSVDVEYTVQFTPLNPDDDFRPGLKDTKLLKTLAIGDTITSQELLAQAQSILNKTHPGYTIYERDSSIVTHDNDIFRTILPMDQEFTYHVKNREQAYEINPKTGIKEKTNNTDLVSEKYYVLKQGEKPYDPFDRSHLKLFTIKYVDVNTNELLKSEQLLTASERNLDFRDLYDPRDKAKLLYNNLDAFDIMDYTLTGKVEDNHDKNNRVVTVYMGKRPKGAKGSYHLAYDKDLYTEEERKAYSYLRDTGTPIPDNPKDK

[27] = molecular target: T5, Hexokinase HKDC1 (Homo sapiens, UniProt Q2TB90); assay: SAR analysis of small molecule inhibitors of hexokinase domain containing I (HKDC1). [Related pubchem assays (depositor defined):AID493160, AID493190]; assay type: functional
T5 sequence (Q2TB90 whole entry): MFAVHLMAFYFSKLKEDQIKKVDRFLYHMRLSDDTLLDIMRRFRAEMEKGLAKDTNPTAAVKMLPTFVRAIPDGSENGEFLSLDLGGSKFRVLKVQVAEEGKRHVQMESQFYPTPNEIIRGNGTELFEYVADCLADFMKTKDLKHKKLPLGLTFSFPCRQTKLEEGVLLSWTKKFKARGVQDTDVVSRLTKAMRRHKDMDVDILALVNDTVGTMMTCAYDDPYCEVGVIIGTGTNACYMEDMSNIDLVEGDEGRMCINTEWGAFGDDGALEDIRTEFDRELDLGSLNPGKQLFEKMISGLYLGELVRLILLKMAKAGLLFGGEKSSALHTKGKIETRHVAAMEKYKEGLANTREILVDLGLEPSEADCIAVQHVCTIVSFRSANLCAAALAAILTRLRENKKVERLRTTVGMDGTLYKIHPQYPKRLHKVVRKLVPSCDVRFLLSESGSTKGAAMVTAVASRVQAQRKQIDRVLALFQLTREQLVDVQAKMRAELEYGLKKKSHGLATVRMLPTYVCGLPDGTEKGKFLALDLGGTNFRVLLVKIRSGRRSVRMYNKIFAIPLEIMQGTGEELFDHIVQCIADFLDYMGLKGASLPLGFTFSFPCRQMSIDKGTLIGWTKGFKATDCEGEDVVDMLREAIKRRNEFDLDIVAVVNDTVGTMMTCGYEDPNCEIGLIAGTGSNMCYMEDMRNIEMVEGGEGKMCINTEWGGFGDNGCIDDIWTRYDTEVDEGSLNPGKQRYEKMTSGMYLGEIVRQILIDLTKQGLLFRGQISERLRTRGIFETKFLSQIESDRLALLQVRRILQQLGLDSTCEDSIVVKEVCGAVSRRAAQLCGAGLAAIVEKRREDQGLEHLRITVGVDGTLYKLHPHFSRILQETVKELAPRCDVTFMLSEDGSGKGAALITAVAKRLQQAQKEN

[28] = molecular target: T6, Hexokinase-1 (Homo sapiens, UniProt P19367); assay: SAR analysis of small molecule inhibitors of hexokinase domain containing I (HKDC1) in the hexokinase 1 selectivity assay. [Related pubchem assays (depositor defined):AID493160, AID493190]; assay type: functional
T6 sequence (P19367 whole entry): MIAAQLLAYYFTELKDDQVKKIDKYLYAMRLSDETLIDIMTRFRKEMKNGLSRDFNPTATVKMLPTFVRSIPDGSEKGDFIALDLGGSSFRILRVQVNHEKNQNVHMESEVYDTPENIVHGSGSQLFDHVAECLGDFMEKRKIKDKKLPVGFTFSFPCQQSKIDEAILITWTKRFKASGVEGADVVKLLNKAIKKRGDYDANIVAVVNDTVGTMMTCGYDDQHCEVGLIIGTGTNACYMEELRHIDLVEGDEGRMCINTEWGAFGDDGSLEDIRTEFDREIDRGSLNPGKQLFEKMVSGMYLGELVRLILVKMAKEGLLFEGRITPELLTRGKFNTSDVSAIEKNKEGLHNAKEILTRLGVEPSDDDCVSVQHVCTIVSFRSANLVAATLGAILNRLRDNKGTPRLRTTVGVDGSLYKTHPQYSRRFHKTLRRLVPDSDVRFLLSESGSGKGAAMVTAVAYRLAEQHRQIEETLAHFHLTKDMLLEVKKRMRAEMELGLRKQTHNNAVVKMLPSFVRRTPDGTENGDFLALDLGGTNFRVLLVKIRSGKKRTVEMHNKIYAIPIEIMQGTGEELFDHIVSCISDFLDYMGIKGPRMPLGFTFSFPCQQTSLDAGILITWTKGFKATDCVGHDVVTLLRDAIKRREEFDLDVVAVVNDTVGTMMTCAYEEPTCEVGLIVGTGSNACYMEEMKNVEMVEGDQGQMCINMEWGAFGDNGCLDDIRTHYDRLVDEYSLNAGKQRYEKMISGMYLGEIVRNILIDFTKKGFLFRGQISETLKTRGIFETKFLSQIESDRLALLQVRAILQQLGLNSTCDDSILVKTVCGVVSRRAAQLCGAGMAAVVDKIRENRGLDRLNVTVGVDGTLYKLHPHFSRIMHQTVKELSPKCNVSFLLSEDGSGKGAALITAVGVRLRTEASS

[29] = molecular target: Dual specificity tyrosine-phosphorylation-regulated kinase 1A (Rattus norvegicus, UniProt Q63470); assay type: biochemical, Homo sapiens
[30] = molecular target: Dual specificity protein kinase CLK1 (Homo sapiens, UniProt P49759); assay: inhibition of human CLK1 activity – biochemical, cherry-picked samples, selectivity assay for Dyrk1A inhibitor project, dose response (AID 588811)
Dual specificity protein kinase CLK1, sequence (P49759 whole entry): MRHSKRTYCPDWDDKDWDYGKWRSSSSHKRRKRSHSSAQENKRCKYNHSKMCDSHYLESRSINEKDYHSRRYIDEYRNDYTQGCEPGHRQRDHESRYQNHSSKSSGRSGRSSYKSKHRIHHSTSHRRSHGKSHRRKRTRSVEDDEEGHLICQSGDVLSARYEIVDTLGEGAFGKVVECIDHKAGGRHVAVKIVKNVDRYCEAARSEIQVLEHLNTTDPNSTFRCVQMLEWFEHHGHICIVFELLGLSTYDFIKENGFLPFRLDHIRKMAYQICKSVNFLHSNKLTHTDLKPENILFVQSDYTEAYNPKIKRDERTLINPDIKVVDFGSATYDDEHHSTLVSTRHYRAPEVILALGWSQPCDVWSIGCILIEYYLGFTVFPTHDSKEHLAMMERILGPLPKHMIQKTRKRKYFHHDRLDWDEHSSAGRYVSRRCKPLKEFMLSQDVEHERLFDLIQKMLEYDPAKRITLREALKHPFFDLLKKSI

SMILES: Cc1cc(C)n(-c2nc3ccccc3nc2Nc2ccc3[nH]c(O)nc3c2)n1
- EC50 [1]: > 99 µM (inactive)
- EC50 [2]: > 99 µM (inactive)

SMILES: Cc1ccc2nc3sc(C(=O)NCc4ccco4)c(N)c3cc2c1
- EC50 [1]: 65.2 µM (inactive)
- EC50 [2]: > 99 µM (inactive)
- IC50 [3]: 4.66 µM (active)
- IC50 [4]: 7.17 µM (active)

SMILES: CN(C)[C@@H]1C(O)=C(C(N)=O)C(=O)[C@@]2(O)C(O)=C3C(=O)c4c(O)ccc(Cl)c4[C@@H](O)[C@H]3C[C@@H]12 [DEMECLOCYCLINE HYDROCHLORIDE]
- EC50 [5]: 92.5 µM (inactive)
- AC50 [6]: 36 µM (active)
- AC50 [7]: 0.866 µM (active)
- EC50 [8]: 13.7 µM (inactive)

SMILES: C=CCNC(=S)N/N=C(\C)c1ccccn1
- IC50 [9]: > 32 µM
- AC50 [10]: < 0.195 µM (active)
- IC50 [11]: > 80 µM (inactive)
- EC50 [12]: > 180 µM (inactive)
- EC50 [13]: 0.146 µM (active)
- EC50 [14]: 40.7 µM (inconclusive)
- AC50 [15]: < 0.26 µM (active)
- EC50 [16]: > 350 µM (not active)
- IC50 [17]: 2.5 µM (active)
- EC50 [18]: > 150 µM (not active)
- EC50 [19]: > 150 µM (inactive)
- EC50 [20]: > 31.5 µM (inactive)
- EC50 [21]: 2 µM (active)
- AC50 [22]: 0.493 µM (active)
- EC50 [23]: 9.83 µM (active)
- CC50 [24]: < 0.08 µM (active)
- IC50 [25]: 3.27 µM (active)
- EC50 [26]: > 150 µM (not active)

SMILES: O=C(Nc1cccc(C(F)(F)F)c1)c1cccc(NC(=O)c2ccc3[nH]nnc3c2)c1
- IC50 [27]: > 80 µM (inactive)
- IC50 [28]: > 80 µM (inactive)

SMILES: Cc1cc(C(=O)Nc2sc3c(c2C#N)CCCC3)no1
- EC50 [12]: > 180 µM (inactive)
- EC50 [13]: 2.21 µM (active)
- EC50 [14]: > 160 µM (inactive)
- EC50 [19]: 24.9 µM (active)

SMILES: O=C(Nc1cccc(C(F)(F)F)c1)c1cccc(NC(=O)c2cccc3ccccc23)c1
- IC50 [27]: > 80 µM (inactive)
- IC50 [28]: > 80 µM (inactive)

SMILES: COc1ccc(-c2cc(NCCc3ccncc3)n3ncnc3n2)cc1
- AC50 [29]: > 120 µM (inactive)
- AC50 [30]: 18.6 µM (active)
